Test system: log phase S. aureus
Assay: Time-kill studies for 240 minutes, Example 3
Assay type: cell-based
Conditions: alone at 0.01% w/v, FIG. 6
Procedure: FIGS. 4, 5 and 6 contain the results of the time-kill studies then carried out against log phase S. aureus for 240 minutes (4 hours).
These formulations included chlorhexidine digluconate at either 0.06% w/v, 0.04% w/v, 0.03% w/v or 0.015% w/v.
Corsodyl® Daily Defence mouthwash 0.06% is a commercially available product manufactured by GlaxoSmithKline which contains 0.06% w/v chlorhexidine digluconate.
The time to zero values for each of the FIGS. 4 to 6 are shown below in Table 4.

Cc1nc2ccc(Oc3ccccc3)cc2c2c1CCN2CCc1ccccc1 [HT61, 4-methyl-8-phenoxy-1-(2-phenylethyl)-2,3-dihydro-1H-pyrrolo[3,2-c]quinoline]
antimicrobial activity against log phase S. aureus: does not have significant antimicrobial activity
